Assay results: ChEMBL document CHEMBL1132035, “Guanidine-substituted imidazoles as inhibitors of nitric oxide synthase” (Bioorg Med Chem Lett, 1999); call rule not given here

Key:
[1] = target: T1, Nitric oxide synthase, inducible (Mus musculus, UniProt P29477); test: Inhibition of purified mouse inducible nitric oxide synthase catalyzed [14C]L-citrulline production at a compound concentration of 1 mM in presence of 50 uM L-arginine
T1 sequence (P29477 whole entry): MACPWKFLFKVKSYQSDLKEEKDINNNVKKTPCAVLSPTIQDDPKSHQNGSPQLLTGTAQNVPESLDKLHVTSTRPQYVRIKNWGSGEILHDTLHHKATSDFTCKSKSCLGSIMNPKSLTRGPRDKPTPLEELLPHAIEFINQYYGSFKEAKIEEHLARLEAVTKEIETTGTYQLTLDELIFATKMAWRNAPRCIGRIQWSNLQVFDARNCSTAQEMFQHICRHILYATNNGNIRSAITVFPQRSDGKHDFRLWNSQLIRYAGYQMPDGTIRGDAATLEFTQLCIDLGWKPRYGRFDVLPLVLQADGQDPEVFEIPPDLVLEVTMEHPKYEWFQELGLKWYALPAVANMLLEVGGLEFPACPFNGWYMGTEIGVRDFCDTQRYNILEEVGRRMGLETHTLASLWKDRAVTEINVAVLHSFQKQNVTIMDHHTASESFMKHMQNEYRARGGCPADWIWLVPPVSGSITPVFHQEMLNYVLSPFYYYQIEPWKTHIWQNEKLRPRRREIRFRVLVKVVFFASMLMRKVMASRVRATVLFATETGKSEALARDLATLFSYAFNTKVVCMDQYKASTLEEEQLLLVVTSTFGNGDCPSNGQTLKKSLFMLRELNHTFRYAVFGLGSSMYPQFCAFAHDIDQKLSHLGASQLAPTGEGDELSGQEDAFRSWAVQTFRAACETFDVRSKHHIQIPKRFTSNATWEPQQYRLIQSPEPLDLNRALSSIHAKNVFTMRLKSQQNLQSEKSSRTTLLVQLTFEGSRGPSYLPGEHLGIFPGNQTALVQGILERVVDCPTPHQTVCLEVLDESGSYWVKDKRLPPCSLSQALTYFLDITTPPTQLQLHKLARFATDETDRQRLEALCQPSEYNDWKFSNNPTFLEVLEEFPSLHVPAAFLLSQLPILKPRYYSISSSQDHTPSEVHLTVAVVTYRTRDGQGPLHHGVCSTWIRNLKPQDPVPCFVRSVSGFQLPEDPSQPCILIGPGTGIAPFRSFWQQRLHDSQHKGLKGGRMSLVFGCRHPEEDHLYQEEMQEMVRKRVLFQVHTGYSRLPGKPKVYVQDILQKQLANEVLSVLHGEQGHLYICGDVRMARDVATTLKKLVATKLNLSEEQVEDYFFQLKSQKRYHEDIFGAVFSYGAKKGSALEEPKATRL

Nitric oxide synthase 3 [2] = target: T2, Nitric oxide synthase 3 (Bos taurus, UniProt P29473); test: Inhibition of bovine endothelial nitric oxide synthase catalyzed [14C]L-citrulline production at a compound concentration of 1 mM in presence of 50 uM L-arginine
T2 sequence (P29473 whole entry): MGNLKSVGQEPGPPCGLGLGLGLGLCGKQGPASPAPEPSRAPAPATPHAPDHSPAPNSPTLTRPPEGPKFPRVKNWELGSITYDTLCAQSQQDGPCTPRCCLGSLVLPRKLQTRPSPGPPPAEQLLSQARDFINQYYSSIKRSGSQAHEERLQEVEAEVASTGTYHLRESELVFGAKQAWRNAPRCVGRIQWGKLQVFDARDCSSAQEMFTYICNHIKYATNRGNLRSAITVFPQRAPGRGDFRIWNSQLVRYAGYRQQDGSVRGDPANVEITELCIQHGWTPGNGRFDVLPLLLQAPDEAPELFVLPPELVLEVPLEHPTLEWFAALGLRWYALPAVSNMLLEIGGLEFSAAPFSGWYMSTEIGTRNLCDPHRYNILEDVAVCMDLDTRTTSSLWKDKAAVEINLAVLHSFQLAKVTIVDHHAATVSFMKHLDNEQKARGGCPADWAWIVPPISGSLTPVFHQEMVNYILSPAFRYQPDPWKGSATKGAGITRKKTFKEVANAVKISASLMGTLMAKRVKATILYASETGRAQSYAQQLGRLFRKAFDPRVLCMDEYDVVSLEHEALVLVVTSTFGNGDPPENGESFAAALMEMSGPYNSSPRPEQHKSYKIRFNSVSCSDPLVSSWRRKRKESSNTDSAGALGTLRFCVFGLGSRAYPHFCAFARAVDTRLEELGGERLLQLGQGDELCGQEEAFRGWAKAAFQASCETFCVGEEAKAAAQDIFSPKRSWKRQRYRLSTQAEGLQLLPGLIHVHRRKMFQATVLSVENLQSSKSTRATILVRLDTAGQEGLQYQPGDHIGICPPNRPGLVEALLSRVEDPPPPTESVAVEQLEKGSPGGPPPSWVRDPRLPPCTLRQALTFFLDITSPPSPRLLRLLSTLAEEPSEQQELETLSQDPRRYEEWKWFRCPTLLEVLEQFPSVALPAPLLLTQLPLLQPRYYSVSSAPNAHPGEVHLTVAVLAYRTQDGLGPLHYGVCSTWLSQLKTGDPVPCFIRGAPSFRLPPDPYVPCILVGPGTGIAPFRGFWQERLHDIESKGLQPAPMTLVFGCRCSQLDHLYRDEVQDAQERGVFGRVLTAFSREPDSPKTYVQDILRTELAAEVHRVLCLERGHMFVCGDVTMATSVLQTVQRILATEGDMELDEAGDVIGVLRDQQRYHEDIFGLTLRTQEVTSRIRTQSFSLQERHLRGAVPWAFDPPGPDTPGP

Nitric oxide synthase 1 [3] = target: T3, Nitric oxide synthase 1 (Rattus norvegicus, UniProt P29476); test: Inhibition of rat neuronal nitric oxide synthase catalyzed [14C]L-citrulline production at a compound concentration of 1 mM in presence of 50 uM L-arginine
Nitric oxide synthase 1 [4] = target: T3, Nitric oxide synthase 1; test: Compound was evaluated as nitric oxide producing substrate of rat Neuronal nitric oxide synthase using the Griess assay; NA means Not active
Nitric oxide synthase 3 [5] = target: T2, Nitric oxide synthase 3; test: Compound was evaluated as nitric oxide producing substrate of bovine Endothelial nitric oxide synthase using the Griess assay; NA means Not active
[6] = target: T1, Nitric oxide synthase, inducible; test: Compound was evaluated as nitric oxide producing substrate of mouse Inducible nitric oxide synthase using the Griess assay; NA means Not active

T3 sequence (P29476 whole entry): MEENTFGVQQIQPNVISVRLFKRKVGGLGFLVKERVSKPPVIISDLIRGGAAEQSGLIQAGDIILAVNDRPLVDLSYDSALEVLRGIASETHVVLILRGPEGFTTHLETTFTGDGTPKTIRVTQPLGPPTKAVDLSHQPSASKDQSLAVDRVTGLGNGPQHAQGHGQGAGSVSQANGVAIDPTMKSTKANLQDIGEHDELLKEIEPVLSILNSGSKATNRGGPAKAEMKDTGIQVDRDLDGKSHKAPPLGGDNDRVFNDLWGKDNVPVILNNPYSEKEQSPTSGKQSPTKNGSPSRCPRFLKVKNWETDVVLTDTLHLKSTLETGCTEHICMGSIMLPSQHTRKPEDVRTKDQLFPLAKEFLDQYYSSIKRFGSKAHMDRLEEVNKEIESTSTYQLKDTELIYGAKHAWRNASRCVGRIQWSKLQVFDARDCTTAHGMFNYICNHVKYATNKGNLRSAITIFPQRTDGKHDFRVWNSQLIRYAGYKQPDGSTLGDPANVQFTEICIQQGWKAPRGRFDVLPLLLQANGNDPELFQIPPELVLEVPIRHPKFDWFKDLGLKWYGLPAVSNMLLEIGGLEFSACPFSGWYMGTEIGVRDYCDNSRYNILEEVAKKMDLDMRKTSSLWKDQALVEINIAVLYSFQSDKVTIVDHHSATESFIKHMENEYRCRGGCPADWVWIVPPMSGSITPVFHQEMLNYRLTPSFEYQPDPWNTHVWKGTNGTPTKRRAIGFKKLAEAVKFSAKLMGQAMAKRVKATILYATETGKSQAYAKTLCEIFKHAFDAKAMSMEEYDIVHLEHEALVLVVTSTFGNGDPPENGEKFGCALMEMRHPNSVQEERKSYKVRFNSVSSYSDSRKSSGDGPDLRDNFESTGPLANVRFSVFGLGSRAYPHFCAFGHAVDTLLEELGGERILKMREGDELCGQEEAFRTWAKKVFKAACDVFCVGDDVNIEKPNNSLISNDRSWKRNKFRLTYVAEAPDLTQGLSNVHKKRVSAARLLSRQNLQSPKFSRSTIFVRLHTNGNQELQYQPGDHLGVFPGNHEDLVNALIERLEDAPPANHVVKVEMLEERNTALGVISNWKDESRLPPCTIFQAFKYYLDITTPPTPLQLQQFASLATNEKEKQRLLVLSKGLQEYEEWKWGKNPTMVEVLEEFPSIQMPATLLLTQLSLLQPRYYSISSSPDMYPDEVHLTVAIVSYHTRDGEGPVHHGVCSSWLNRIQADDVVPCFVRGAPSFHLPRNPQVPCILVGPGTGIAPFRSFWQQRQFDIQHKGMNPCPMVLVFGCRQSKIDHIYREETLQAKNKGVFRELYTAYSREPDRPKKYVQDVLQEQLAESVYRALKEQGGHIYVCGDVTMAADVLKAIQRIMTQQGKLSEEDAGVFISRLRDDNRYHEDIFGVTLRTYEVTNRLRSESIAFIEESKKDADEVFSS

Row | SMILES | IC50 (Nitric oxide synthase 3 [2]) | NO production as substrate (Nitric oxide synthase 1 [4]) | NO-producing substrate activity (Nitric oxide synthase 3 [5]) | NO production as substrate [6] | IC50 [1] | also measured
1 | N=C(N)NCc1ncc[nH]1 |  |  |  |  | 138 µM | 
2 | N=C(N)NCCc1c[nH]cn1 |  | Not Active | Not Active | Not Active |  | 
3 | N=C(N)NCCc1ncc[nH]1 |  | Not Active | Not Active | Not Active |  | 
4 | N=C(N)NCc1c[nH]cn1 |  | Not Active | Not Active | Not Active |  | 
5 | c1ccc(-c2ncc[nH]2)cc1 [2-PHENYLIMIDAZOLE] |  |  |  |  | > 1000 µM | 
6 | c1c[nH]cn1 [IMIDAZOLE] |  |  |  |  | 40 µM | 

Continued, in another order:

Row | IC50 (Nitric oxide synthase 3 [2]) | NO production as substrate (Nitric oxide synthase 1 [4]) | NO-producing substrate activity (Nitric oxide synthase 3 [5]) | NO production as substrate [6] | SMILES | IC50 [1] | also measured
7 | 347 µM |  |  |  | N/C(=N\CCC[C@@H](N)C(=O)O)NCc1ncc[nH]1 |  | IC50 (Nitric oxide synthase 1 [3]): 1590 µM
8 | 629 µM |  |  |  | N/C(=N\CCC[C@@H](N)C(=O)O)NCCc1ncc[nH]1 |  | IC50 (Nitric oxide synthase 1 [3]): 1490 µM
9 | 1090 µM |  |  |  | N/C(=N\CCC[C@@H](N)C(=O)O)NCCc1c[nH]cn1 |  | 
10 |  | Not Active | Not Active | Not Active | N/C(=N\CCC[C@H](N)C(=O)O)NCc1c[nH]cn1 |  | 
